Experimental data published in ChEMBL document CHEMBL1201862, “PubChem BioAssay data set” (2004).
Calls of active or inactive are those of the source. Cut-off read from the data, not from the text of the source: actives have a measured IC50 and inactives only a lower limit.

Biological target: Envelope glycoprotein gp160 (Human immunodeficiency virus 1, UniProt Q6QLK5)
Assay: cell-free HIV fusion peptide-binding blockers – biochemical, uHTS, fluorescence dequenching, […] (AID 1986)

Envelope glycoprotein gp160, sequence (Q6QLK5 whole entry, the tested form may be a part): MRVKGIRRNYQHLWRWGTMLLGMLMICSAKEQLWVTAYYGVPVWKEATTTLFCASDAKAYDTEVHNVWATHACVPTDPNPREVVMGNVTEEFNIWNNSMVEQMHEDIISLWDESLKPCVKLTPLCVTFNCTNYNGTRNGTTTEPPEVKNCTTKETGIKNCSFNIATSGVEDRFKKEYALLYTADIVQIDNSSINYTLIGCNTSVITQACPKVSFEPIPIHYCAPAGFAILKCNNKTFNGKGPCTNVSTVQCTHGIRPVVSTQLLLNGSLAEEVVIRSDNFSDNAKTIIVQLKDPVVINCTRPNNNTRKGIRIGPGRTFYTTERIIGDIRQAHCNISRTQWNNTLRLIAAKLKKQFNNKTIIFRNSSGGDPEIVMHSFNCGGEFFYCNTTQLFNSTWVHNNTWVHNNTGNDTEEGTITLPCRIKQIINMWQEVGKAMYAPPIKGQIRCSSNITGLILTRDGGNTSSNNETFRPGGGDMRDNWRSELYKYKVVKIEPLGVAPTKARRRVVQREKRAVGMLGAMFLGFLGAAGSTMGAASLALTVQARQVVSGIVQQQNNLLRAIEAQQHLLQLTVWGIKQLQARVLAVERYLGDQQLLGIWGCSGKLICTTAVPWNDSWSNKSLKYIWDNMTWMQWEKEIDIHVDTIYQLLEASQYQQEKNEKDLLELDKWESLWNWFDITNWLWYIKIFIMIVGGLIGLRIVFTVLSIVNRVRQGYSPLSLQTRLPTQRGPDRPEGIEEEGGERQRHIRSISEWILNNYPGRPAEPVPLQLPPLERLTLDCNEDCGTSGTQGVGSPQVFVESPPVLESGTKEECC

CSc1nnc(-c2ccccc2/N=C/c2c(C)nn(-c3ccc4ccccc4c3)c2O)c(O)n1
IC50: 25.8 µM (active)

COc1ccccc1NS(=O)(=O)c1cccc(N2C(=O)/C(=C\Nc3ccccc3C(=O)O)c3ccccc3C2=O)c1
IC50: 13.1 µM (active)

COc1cc(/C=C2\C(=N)N3N=C(S(C)(=O)=O)SC3=NC2=O)ccc1OCCOc1ccccc1C
IC50: 13.7 µM (active)
